Data reported in patent publication US20080312230A1, “Organic Compounds” (Novartis AG, priority 2005, published 2008).
pIC50, pKi: −log10 of the molar value.

target: T1, CRTh2 receptor (Homo sapiens, UniProt Q9Y5Y4); assay: Filtration binding assay: [3H]-PGD2 competition on CHO.K1-CRTh2 membranes; details: competition with 2.5 nM [3H]-PGD2, CHO.K1-CRTh2 membranes, Cheng-Prussoff; read-out: Ki values in the SPA binding assay
T1 construct: expressed in transfected cells; host or cells: CHO.K1 (Chinese Hamster Ovary)
T1 sequence (Q9Y5Y4 1-395): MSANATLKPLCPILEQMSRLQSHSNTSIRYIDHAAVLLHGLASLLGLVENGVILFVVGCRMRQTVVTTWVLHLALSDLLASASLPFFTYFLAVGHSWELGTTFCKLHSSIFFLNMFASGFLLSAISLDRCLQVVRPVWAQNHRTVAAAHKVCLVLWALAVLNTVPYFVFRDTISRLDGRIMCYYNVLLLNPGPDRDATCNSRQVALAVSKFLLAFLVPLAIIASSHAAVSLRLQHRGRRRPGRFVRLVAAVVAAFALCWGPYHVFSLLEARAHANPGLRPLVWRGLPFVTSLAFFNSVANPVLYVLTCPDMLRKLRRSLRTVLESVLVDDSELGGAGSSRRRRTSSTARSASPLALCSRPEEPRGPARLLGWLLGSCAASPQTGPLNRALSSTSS
Experimental: Filtration Binding Assay Protocol
The binding of CRTh2 antagonists is determined using membranes prepared from human CRTh2-expressing Chinese Hamster Ovary cells (CHO.K1-CRTh2). To produce cell membranes CHO.K1-CRTh2 cells cultured in roller bottles are harvested using cell dissociation buffer (Invitrogen). The cells are pelleted by centrifugation (167 g, 5 min). The cell pellet is incubated in hypotonic buffer (15 mM Tris-OH, 2 mM MgCl2, 0.3 mM EDTA, 1 mM EGTA, 1× Complete™ tablet) at 4° C. for 30 min. At 4° C. cells are homogenized using a Polytron® (IKA Ultra Turrax T25) for 5 bursts of 1 second. The homogenate is centrifuged (Beckman Optima TM TL Ultracentrifuge, 48000 g, 30 min at 4° C.). The supernatant is discarded and the membrane pellet resuspended in homogenisation buffer (75 mM Tris-OH, 12.5 mM MgCl2, 0.3 mM EDTA, 1 mM EGTA, 250 mM Sucrose, 1× Complete™ tablet. Membrane preparations are aliquoted and stored at […]. The protein content is estimated using Bradford Protein Assay Dye (Bio Rad).
The binding of [^3H]-PGD2 (157 Ci/mmol) to CHO.K1-CRTh2 membranes is determined in the absence (total binding) and presence (non-specific binding) of unlabelled PGD2 (1 μM). Subtraction of the cpm (counts per minute) of [^3H]-PGD2 binding in presence of excess unlabelled PGD2 from that observed in the absence of excess unlabelled PGD2 is defined as specific binding. Active CRTh2 antagonists are able to compete with [^3H]-PGD2 for binding to the CRTh2 receptor and are identified in a decrease in the number of cpm bound.
The assay is performed in Greiner U-bottomed 96 well-plates, in a final volume of 100 μl per well. CHO.K1-CRTh2 membranes were diluted in assay buffer (10 mM HEPES-KOH (pH 7.4), 1 mM EDTA and 10 mM MnCl2) and 10 μg are added to each well. [^3H]-PGD2 is diluted in assay buffer and added to each well at a final concentration of 2.5 nM. To determine non-specific binding, [^3H]-PGD2 binding to the CRTh2 receptor is competed with using unlabelled PGD2 at a final well concentration of 1 μM. The experiment is done in triplicate, with reagents added to the wells as follows:
25 μL assay buffer for total binding or
25 μL PGD2 to determine non-specific binding
25 μL test compound in DMSO/assay buffer
The plates are incubated at room temperature on a shaker for 1 hour, and then harvested (Tomtec Harvester 9600) onto GF/C filter plates using wash buffer (10 mM HEPES-KOH, pH 7.4). The plate is dried for 2 hours, prior to addition of Micro-Scint 20™ (50 μL) and sealing with TopSeal-S™. Plates are then counted using a Packard Top Count instrument, Plates are then read on the Packard Topcount with the 3H Scintillation program (1 min per well).
Ki (dissocation constant for the inhibition) values for the CRTh2 antagonists are reported. Ki values are determined using Sigma Plot™ software, using the Cheng-Prussoff equation.
Where S is the Concentration of Radioligand and Kd is the Dissociation Constant.

| Structure (SMILES) | pKi |
| --- | --- |
| Cc1c(CC(=O)O)c2cccnc2n1Cc1ccc(S(C)(=O)=O)cc1Cl [Example 90, [1-(2-Chloro-4-methanesulfonyl-benzyl)-2-methyl-1H-pyrrolo[2,3-b]pyridin-3-yl]-acetic acid] | 8.52 |
| Cc1c(CC(=O)O)c2cccnc2n1Cc1ccc(S(=O)(=O)C(C)C)cc1 [Example 105, {2-Methyl-1-[4-(propane-2-sulfonyl)-benzyl]-1H-pyrrolo[2,3-b]pyridin-3-yl}-acetic acid] | 7.01 |
| CCOc1cc(S(=O)(=O)n2c(C)c(CC(=O)O)c3cccnc32)ccc1C#N [Example 127, [1-(4-Cyano-3-ethoxy-benzenesulfonyl)-2-methyl-1H-pyrrolo[2,3-b]pyridin-3-yl]-acetic acid] | 7.37 |
| COc1cc(S(=O)(=O)n2c(C)c(CC(=O)O)c3cccnc32)ccc1Cl [Example 148, [1-(4-Chloro-3-methoxy-benzenesulfonyl)-2-methyl-1H-pyrrolo[2,3-b]pyridin-3-yl]-acetic acid] | 7.19 |
| COc1cc(S(=O)(=O)n2c(C)c(CC(=O)O)c3cccnc32)ccc1C#N [Example 129, [1-(4-Cyano-3-methoxy-benzenesulfonyl)-2-methyl-1H-pyrrolo[2,3-b]pyridin-3-yl]-acetic acid] | 7.37 |
| Cc1c(CC(=O)O)c2cccnc2n1C(C)c1ccc(C(F)(F)F)cc1 (stereo not drawn) [Example 115, {2-Methyl-1-[1-(4-trifluoromethyl-phenyl)-ethyl]-1H-pyrrolo[2,3-b]pyridin-3-yl}-acetic acid] | 7.35 |
| Cc1c(CC(=O)O)c2cccnc2n1C(C)c1ccc(S(C)(=O)=O)cc1 (stereo not drawn) [Example 117, {1-[1-(4-Methanesulfonyl-phenyl)-ethyl]-2-methyl-1H-pyrrolo[2,3-b]pyridin-3-yl}-acetic acid] | 7.60 |
| Cc1c(CC(=O)O)c2ccc(Cl)nc2n1Cc1ccc(S(C)(=O)=O)cc1 [Example 99, [6-Chloro-1-(4-methanesulfonyl-benzyl)-2-methyl-1H-pyrrolo[2,3-b]pyridin-3-yl]-acetic acid] | 7.92 |
| Cc1c(CC(=O)O)c2cccnc2n1Cc1ccc(C(F)(F)F)cc1C(F)(F)F [Example 119, [1-(2,4-Bis-trifluoromethyl-benzyl)-2-methyl-1H-pyrrolo[2,3-b]pyridin-3-yl]-acetic acid] | 7.54 |
| Cc1c(CC(=O)O)c2cccnc2n1C(C)c1ccc(Cl)cc1 (stereo not drawn) [Example 84, {1-[1-(4-Chloro-phenyl)-ethyl]-2-methyl-1H-pyrrolo[2,3-b]pyridin-3-yl}-acetic acid] | 7.00 |
| Cc1c(CC(=O)O)c2cccnc2n1Cc1ccc(S(C)(=O)=O)c(C(F)(F)F)c1 [Example 92, [1-(4-Methanesulfonyl-3-trifluoromethyl-benzyl)-2-methyl-1H-pyrrolo[2,3-b]pyridin-3-yl]-acetic acid] | 7.66 |
| Cc1c(CC(=O)O)c2ccc(Cl)nc2n1Cc1ccc(S(C)(=O)=O)cc1C(F)(F)F [Example 100, [6-Chloro-1-(4-methanesulfonyl-2-trifluoromethyl-benzyl)-2-methyl-1H-pyrrolo[2,3-b]pyridin-3-yl]-acetic acid] | 8.30 |
| CCCOc1cc(S(=O)(=O)n2c(C)c(CC(=O)O)c3cccnc32)ccc1C#N [Example 130, [1-(4-Cyano-3-propoxy-benzenesulfonyl)-2-methyl-1H-pyrrolo[2,3-b]pyridin-3-yl]-acetic acid] | 7.30 |
| CCS(=O)(=O)c1ccc(Cn2c(C)c(CC(=O)O)c3cccnc32)c(C(F)(F)F)c1 [Example 93, [1-(4-Ethanesulfonyl-2-trifluoromethyl-benzyl)-2-methyl-1H-pyrrolo[2,3-b]pyridin-3-yl]-acetic acid] | 8.10 |
| Cc1c(CC(=O)O)c2cccnc2n1Cc1ccc([N+](=O)[O-])cc1 [Example 122, [2-Methyl-1-(4-nitro-benzyl)-1H-pyrrolo[2,3-b]pyridin-3-yl]-acetic acid] | 6.83 |
| Cc1c(CC(=O)O)c2cccnc2n1S(=O)(=O)c1ccc(Cl)c(C#N)c1 [Example 103, [1-(4-Chloro-3-cyano-benzenesulfonyl)-2-methyl-1H-pyrrolo[2,3-b]pyridin-3-yl]-acetic acid] | 7.46 |
| Cc1c(CC(=O)O)c2cccnc2n1Cc1ccc(S(C)(=O)=O)cc1 [Example 96] | 7.54 |
| Cc1c(CC(=O)O)c2cccnc2n1C(C)c1ccc(S(C)(=O)=O)cc1 (single isomer, unassigned) [Example 97, {1-[1-(4-Methanesulfonyl-phenyl)-ethyl]-2-methyl-1H-pyrrolo[2,3-b]pyridin-3-yl}-acetic acid] | 7.96 |
| COc1cc(S(=O)(=O)n2c(C)c(CC(=O)O)c3cccnc32)ccc1F [Example 102, [1-(4-Fluoro-3-methoxy-benzenesulfonyl)-2-methyl-1H-pyrrolo[2,3-b]pyridin-3-yl]-acetic acid] | 7.25 |
| Cc1c(CC(=O)O)c2cccnc2n1Cc1ccc(S(C)(=O)=O)c(Cl)c1 [Example 125, [1-(3-Chloro-4-methanesulfonyl-benzyl)-2-methyl-1H-pyrrolo[2,3-b]pyridin-3-yl]-acetic acid] | 7.57 |
| CCS(=O)(=O)c1ccc(Cn2c(C)c(CC(=O)O)c3cccnc32)c(Cl)c1 [Example 94, [1-(2-Chloro-4-ethanesulfonyl-benzyl)-2-methyl-1H-pyrrolo[2,3-b]pyridin-3-yl]-acetic acid] | 8.15 |
| Cc1cc(S(C)(=O)=O)ccc1Cn1c(C)c(CC(=O)O)c2cccnc21 [Example 112, [1-(4-Methanesulfonyl-2-methyl-benzyl)-2-methyl-1H-pyrrolo[2,3-b]pyridin-3-yl]-acetic acid] | 7.51 |

target: T1, CRTh2 receptor; assay: CRTH2 cAMP functional assay in CHO.K1-CRTh2 cells; assay type: cell-based; details: not given
Experimental: The assay plate is incubated at room temperature on a shaker for 15 minutes.
A mix of agonist (10 nM Prostaglandin D2) and 5 μM forskolin is prepared in assay stimulation buffer and added to the assay plate (5 μL/well).
In addition, a cAMP standard is serially diluted in assay stimulation buffer and added to separate empty wells on the assay plate (20 μL/well).
The assay plate is incubated at room temperature on a shaker for 60 minutes.
The resulting lysis mix is added to all wells of the assay plate (40 μL/well).
The assay plate is sealed with Topseal-S™ and incubated in the dark at room temperature on a shaker for 45 minutes. The plate is then counted using a Packard Fusion™ instrument.
The resulting counts per minute are converted to nM cAMP by using the prepared cAMP standard curve.

| Structure (SMILES) | pIC50 |
| --- | --- |
| Cc1c(CC(=O)O)c2cccnc2n1C(C)c1ccc(Cl)cc1 (stereo not drawn) [Example 84, {1-[1-(4-Chloro-phenyl)-ethyl]-2-methyl-1H-pyrrolo[2,3-b]pyridin-3-yl}-acetic acid] | 7.08 |
| Cc1c(CC(=O)O)c2cccnc2n1S(=O)(=O)c1ccc([N+](=O)[O-])cc1 [Example 3] | 6.56 |
